# In ChEMBL document CHEMBL5346945, “Discovery and Optimization of the First ATP Competitive Type-III c-MET Inhibitor” (J Med Chem, 2023):
# Experiments:
# [1] = biological target: T1, Tyrosine-protein kinase receptor TYRO3 (Homo sapiens) (UniProt Q06418); settings: dose 100.0 nM
# T1 sequence (whole entry): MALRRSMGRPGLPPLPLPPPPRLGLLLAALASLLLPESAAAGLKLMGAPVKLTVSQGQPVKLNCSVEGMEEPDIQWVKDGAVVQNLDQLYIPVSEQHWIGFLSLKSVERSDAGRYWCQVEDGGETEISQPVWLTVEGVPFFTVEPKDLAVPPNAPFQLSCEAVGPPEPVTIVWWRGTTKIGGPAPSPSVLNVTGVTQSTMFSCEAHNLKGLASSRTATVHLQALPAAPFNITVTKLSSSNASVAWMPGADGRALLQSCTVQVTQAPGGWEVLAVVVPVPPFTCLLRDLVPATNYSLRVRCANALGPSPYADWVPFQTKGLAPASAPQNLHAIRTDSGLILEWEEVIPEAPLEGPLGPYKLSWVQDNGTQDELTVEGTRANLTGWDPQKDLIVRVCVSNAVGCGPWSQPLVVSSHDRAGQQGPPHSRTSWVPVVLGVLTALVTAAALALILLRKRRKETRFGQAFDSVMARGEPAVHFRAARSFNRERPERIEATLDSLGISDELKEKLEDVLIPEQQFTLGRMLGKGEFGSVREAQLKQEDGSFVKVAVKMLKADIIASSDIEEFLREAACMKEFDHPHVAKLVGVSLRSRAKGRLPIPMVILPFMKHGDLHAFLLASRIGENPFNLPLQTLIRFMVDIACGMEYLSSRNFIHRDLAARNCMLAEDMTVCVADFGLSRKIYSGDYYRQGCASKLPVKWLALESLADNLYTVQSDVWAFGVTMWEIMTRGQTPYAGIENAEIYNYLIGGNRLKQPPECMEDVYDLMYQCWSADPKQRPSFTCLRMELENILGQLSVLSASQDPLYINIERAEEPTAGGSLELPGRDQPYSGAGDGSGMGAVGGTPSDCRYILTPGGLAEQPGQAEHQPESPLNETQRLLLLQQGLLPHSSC
# Description: Inhibition of TYRO3 (unknown origin) at 100 nM relative to control
# [2] = biological target: Macrophage-stimulating protein receptor (Homo sapiens) (UniProt Q04912); settings: dose 100.0 nM
# Description: Inhibition of MST1R (unknown origin) at 100 nM relative to control
# [3] = Metabolic stability in human liver microsomes assessed as intrinsic clearance at 1 uM preincubated with NADPH for 8 mins followed by compound addition measured at 0.5 to 30 mins by LC-MS/MS analysis; format: ADME, Microsome; settings: time 0.5-30 min, read-out: CLH
# [4] = Metabolic stability in Han Wistar rat hepatocytes assessed as intrinsic clearance measured per million cells at 1 uM measured at 0.5 to 2 hrs by LC-MS/MS analysis; format: ADME, cell-based, Hepatocyte; settings: time 0.5-2 hrs, read-out: CLH
# [5] = biological target: T2, Hepatocyte growth factor receptor (Homo sapiens, UniProt P08581); test: Inhibition of wild type c-MET (unknown origin) using ATP and poly(L-glutamic acid-L-tyrosine) as substrate incubated for 60 mins measured by ADP-Glo kinase assay
# [6] = biological target: T3, Tyrosine-protein kinase Mer (Homo sapiens) (UniProt Q12866); settings: dose 100.0 nM
# T3 sequence (whole entry): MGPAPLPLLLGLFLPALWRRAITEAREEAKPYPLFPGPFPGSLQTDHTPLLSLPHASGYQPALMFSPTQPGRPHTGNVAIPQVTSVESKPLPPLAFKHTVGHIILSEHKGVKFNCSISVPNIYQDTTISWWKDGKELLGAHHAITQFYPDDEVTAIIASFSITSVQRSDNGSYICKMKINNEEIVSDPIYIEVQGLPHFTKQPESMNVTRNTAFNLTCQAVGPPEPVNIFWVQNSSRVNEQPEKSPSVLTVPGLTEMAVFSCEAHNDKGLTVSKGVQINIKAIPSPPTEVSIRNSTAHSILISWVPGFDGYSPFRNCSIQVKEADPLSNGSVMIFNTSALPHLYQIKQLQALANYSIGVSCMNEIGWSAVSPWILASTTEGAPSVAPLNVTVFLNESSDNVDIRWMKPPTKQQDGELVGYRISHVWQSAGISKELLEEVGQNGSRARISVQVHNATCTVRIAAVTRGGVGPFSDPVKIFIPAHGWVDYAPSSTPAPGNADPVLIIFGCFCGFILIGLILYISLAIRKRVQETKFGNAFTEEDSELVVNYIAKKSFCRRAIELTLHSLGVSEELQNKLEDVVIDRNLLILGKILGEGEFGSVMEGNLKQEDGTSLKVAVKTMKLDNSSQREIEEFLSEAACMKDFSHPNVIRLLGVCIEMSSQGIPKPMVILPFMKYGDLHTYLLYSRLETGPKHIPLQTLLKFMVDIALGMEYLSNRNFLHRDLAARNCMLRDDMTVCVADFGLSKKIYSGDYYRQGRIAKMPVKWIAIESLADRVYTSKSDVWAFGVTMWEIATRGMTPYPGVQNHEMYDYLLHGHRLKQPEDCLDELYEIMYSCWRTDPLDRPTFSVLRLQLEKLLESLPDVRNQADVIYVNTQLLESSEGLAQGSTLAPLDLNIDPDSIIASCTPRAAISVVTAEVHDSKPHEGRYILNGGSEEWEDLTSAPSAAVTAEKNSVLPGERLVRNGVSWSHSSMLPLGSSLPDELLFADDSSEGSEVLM
# Description: Inhibition of MERTK (unknown origin) at 100 nM relative to control
# [7] = biological target: T2, Hepatocyte growth factor receptor; settings: dose 100.0 nM
# Description: Inhibition of c-MET (unknown origin) at 100 nM relative to control
# [8] = Lipophilicity, logD of compound in octanol and water at pH 7.4 measured by shake-flask method; format: physicochemical
# T2 sequence (P08581 whole entry): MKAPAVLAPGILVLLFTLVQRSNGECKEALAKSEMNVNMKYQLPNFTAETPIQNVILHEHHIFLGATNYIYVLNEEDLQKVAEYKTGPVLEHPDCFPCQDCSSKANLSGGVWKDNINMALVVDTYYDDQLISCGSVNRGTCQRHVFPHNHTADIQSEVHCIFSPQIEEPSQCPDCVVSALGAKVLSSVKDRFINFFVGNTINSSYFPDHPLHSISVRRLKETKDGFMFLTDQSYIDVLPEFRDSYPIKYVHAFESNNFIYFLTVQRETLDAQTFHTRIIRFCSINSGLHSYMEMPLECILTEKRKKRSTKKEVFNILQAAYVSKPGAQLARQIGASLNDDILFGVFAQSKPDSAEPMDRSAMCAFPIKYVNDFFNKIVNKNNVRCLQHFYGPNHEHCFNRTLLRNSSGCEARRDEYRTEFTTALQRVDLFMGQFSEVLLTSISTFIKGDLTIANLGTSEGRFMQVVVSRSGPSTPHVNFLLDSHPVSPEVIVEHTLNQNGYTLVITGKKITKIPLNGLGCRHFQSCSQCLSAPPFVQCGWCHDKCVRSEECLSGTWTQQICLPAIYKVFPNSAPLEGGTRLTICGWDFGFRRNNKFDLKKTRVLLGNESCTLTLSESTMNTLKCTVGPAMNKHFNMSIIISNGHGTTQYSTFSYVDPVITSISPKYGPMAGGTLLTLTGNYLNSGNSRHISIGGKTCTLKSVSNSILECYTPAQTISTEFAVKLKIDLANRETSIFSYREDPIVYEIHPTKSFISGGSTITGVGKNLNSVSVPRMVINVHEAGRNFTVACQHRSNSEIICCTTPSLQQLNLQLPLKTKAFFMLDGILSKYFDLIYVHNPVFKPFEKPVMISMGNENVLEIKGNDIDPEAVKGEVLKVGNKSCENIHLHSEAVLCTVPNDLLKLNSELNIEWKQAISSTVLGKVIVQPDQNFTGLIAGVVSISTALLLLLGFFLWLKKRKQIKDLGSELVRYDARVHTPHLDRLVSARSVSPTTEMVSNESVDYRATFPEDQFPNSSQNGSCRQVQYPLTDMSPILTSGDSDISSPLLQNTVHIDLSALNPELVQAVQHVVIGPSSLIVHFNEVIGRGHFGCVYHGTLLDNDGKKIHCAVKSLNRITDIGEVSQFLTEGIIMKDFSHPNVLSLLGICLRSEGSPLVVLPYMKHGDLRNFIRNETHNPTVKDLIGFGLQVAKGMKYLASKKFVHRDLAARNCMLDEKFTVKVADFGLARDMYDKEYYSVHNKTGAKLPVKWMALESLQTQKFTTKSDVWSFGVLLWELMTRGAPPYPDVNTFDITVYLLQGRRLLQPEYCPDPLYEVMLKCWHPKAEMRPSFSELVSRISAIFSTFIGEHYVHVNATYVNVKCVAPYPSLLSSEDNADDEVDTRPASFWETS
# Sequence of Macrophage-stimulating protein receptor (Homo sapiens) (Q04912 25-304 limits assumed): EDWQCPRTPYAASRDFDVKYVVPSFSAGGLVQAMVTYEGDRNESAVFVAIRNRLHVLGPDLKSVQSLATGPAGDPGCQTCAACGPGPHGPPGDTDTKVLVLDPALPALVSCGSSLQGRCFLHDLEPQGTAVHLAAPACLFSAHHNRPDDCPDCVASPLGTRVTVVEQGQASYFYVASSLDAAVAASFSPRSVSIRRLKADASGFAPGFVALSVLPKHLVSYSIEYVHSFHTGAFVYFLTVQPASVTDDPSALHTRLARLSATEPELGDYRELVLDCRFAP
# Sequence of Macrophage-stimulating protein receptor (Homo sapiens) (Q04912 310-1400 limits assumed): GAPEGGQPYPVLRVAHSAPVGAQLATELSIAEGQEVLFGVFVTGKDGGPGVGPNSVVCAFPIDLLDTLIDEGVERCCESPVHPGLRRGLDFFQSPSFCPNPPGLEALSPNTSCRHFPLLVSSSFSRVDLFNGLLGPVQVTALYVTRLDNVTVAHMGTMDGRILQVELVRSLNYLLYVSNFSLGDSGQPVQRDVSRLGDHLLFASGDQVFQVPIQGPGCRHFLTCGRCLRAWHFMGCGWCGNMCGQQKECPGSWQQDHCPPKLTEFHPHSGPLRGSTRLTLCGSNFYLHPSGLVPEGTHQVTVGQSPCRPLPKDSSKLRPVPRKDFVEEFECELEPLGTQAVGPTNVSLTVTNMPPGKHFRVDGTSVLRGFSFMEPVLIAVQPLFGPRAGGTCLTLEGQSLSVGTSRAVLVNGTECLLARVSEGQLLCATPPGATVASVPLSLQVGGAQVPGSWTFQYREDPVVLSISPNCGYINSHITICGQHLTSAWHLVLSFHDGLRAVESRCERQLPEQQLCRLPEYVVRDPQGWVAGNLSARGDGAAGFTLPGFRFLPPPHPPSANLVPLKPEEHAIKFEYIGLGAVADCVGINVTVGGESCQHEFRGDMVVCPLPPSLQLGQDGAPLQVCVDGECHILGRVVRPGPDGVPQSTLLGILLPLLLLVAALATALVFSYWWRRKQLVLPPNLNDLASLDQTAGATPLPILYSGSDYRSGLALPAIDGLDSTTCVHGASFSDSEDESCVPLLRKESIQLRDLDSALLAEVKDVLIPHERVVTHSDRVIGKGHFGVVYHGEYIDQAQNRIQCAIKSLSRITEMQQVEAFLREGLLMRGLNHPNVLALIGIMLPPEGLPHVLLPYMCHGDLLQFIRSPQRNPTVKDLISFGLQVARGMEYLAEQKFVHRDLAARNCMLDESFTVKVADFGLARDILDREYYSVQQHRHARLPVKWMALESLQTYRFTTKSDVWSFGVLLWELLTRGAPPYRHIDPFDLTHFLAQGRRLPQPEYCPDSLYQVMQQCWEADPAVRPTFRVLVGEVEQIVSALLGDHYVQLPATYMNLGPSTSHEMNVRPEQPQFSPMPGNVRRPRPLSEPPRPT
compound,measurement,setting,value
C#Cc1n[nH]c2c(-c3cn([C@@H](C)c4ccccn4)c(=O)[nH]c3=O)cc(F)cc12,inhibition,[1],< 50%
same,inhibition,[2],< 50%
same,microsomal CLint at 1 µM,[3],18 µL/min/mg
same,hepatocyte CLint at 1 µM,[4],6.07 µL/min/1e6 cells
same,IC50,[5],16 nM
same,inhibition,[6],75.3%
same,inhibition,[7],80%
same,logD,[8],2.7
